In ChEMBL document CHEMBL5584205 (Bioorg Med Chem Lett, 2024):
One block for each molecule: values may come before it. Calls of active or inactive are those of the source. The rule behind the calls is not given here.

Assays:
Neutrophil elastase = target: T1, Neutrophil elastase (Homo sapiens, UniProt P08246); assay: Inhibition of human neutrophil elastase by enzymatic assay
T1 sequence (P08246 whole entry): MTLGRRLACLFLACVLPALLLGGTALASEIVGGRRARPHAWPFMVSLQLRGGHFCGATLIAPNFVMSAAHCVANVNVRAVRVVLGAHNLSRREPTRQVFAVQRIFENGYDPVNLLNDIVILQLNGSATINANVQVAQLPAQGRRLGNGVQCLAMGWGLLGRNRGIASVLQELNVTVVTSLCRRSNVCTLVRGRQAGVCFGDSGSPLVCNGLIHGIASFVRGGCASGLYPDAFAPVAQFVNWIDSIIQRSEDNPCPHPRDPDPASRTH

Neutrophil = assay: Inhibition of O2 generation in fMLP/CB-induced human neutrophils by cell based assay; type: functional
[1] = Inhibition of elastase release in fMLP/CB-induced human neutrophils by cell based assay; type: functional; conditions: Neutrophil
Myeloblastin = target: T2, Myeloblastin (Homo sapiens, UniProt P24158); assay: Inhibition of PR3 (unknown origin) activity
T2 sequence (P24158 whole entry): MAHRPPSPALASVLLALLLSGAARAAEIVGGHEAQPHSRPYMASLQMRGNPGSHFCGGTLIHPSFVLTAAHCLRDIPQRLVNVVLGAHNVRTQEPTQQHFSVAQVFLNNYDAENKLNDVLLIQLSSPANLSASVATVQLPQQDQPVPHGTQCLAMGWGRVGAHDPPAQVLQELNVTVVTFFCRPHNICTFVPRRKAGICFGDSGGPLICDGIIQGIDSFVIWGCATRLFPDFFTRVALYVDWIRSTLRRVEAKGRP

[2] = target: T3, NAD-dependent protein deacetylase sirtuin-2 (Homo sapiens, UniProt Q8IXJ6); assay: Inhibition of SIRT2 (unknown origin) activity
T3 sequence (Q8IXJ6 whole entry): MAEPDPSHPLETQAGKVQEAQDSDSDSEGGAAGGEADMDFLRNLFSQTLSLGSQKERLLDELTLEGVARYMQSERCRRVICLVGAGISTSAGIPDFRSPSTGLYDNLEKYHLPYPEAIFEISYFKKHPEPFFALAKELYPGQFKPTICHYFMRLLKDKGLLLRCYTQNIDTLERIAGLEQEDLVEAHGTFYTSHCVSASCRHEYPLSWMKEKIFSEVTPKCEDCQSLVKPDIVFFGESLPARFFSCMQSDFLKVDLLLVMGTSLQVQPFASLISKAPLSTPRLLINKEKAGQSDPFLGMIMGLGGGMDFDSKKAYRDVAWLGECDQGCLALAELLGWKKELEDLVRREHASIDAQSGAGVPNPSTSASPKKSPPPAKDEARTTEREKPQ

Homo sapiens = species on record: Homo sapiens; assay: Inhibition of CG (unknown origin)

Compound: O=C(N[C@H](Cc1ccccc1)C(=O)O)c1ccccc1/N=N/c1c(O)ccc2ccccc12
- IC50 (Neutrophil elastase): 20.7 µM
- IC50 (Neutrophil): 1.61 µM
- IC50 [1]: 1.54 µM

Compound: COC(=O)[C@@H](NC(=O)c1ccccc1/N=C/c1ccccc1O)c1ccccc1
- IC50 (Neutrophil elastase): > 50 µM
- IC50 (Neutrophil): > 10 µM
- IC50 [1]: 8.73 µM

Compound: COC(=O)[C@@H](NC(=O)c1ccccc1/N=C/c1c(O)ccc2ccccc12)c1ccccc1
- IC50 (Neutrophil elastase): > 50 µM
- IC50 (Neutrophil): 3.56 µM
- IC50 [1]: 3.84 µM

Compound: COC(=O)[C@@H](Cc1ccccc1)NC(=O)c1ccccc1/N=N/c1c(O)ccc2ccccc12
- IC50 (Neutrophil elastase): 19.3 µM
- IC50 [1]: > 10 µM

Compound: O=C(N[C@@H](Cc1ccccc1)C(=O)O)c1ccccc1/N=N/c1c(O)ccc2ccccc12
- IC50 (Neutrophil elastase): 21 µM
- IC50 (Neutrophil): 1.31 µM
- IC50 [1]: 1.07 µM

Compound: COC(=O)[C@H](NC(=O)c1ccccc1/N=C/c1ccccc1O)c1ccccc1
- IC50 (Neutrophil elastase): > 50 µM
- IC50 (Neutrophil): 4.36 µM
- IC50 [1]: 4.98 µM

Compound: COC(=O)[C@@H](Cc1ccccc1)NC(=O)c1ccccc1/N=C/c1c(O)ccc2ccccc12
- IC50 (Neutrophil elastase): > 50 µM
- IC50 (Neutrophil): 4.27 µM
- IC50 [1]: 1.59 µM

Compound: COC(=O)[C@H](Cc1ccccc1)NC(=O)c1ccccc1/N=C/c1c(O)ccc2ccccc12
- IC50 (Neutrophil elastase): > 50 µM
- IC50 (Neutrophil): 2.95 µM
- IC50 [1]: 2.09 µM

Compound: COC(=O)[C@H](NC(=O)c1ccccc1/N=N/c1c(O)ccc2ccccc12)c1ccccc1
- IC50 (Neutrophil elastase): 18.9 µM
- IC50 (Neutrophil): > 10 µM
- IC50 [1]: > 10 µM

Compound: O=C(N[C@H](C(=O)O)c1ccccc1)c1ncccc1/N=N/c1c(O)ccc2ccccc12
- IC50 (Neutrophil elastase): 4.91 µM
- IC50 (Neutrophil): 0.9 µM
- IC50 [1]: 1.86 µM
- IC50 (Myeloblastin): 20.7 µM
- IC50 [2]: 2.42 µM
- inhibition (Homo sapiens): inactive

Compound: COC(=O)[C@H](NC(=O)c1ccccc1/N=C/c1c(O)ccc2ccccc12)c1ccccc1
- IC50 (Neutrophil elastase): 38.8 µM
- IC50 (Neutrophil): 5.56 µM
- IC50 [1]: 1.76 µM

Compound: COC(=O)[C@@H](NC(=O)c1ncccc1/N=N/c1c(O)ccc2ccccc12)c1ccccc1
- IC50 (Neutrophil elastase): 22.4 µM
- IC50 (Neutrophil): > 10 µM
- IC50 [1]: > 10 µM

Compound: COC(=O)[C@@H](NC(=O)c1ccccc1/N=N/c1c(O)ccc2ccccc12)c1ccccc1
- IC50 (Neutrophil elastase): 18 µM
- IC50 (Neutrophil): > 10 µM
- IC50 [1]: > 10 µM

Second part, the molecule after the results:

- IC50 (Neutrophil elastase): 24.5 µM
- IC50 (Neutrophil): > 10 µM
- IC50 [1]: 1.92 µM
Compound: CC(NC(=O)c1ccccc1/N=C/c1c(O)ccc2ccccc12)c1ccccc1 (configuration not stated) [SIRTINOL]

- IC50 (Neutrophil elastase): 12.1 µM
- IC50 (Neutrophil): > 10 µM
- IC50 [1]: > 10 µM
Compound: CC(NC(=O)c1ccccc1/N=N/c1c(O)ccc2ccccc12)c1ccccc1 (configuration not stated)

- IC50 (Neutrophil elastase): > 50 µM
- IC50 (Neutrophil): 6.07 µM
- IC50 [1]: > 10 µM
Compound: CC(NC(=O)c1ccccc1/N=C/c1ccccc1O)c1ccccc1 (configuration not stated)

- IC50 (Neutrophil elastase): 20.4 µM
- IC50 (Neutrophil): 1.12 µM
- IC50 [1]: 2.36 µM
Compound: O=C(N[C@@H](C(=O)O)c1ccccc1)c1ccccc1/N=N/c1c(O)ccc2ccccc12

- IC50 (Neutrophil elastase): > 50 µM
- IC50 (Neutrophil): > 10 µM
- IC50 [1]: > 10 µM
Compound: C[C@@H](NC(=O)c1ccccc1/N=C/c1c(O)ccc2ccccc12)C1CCCCC1

- IC50 (Neutrophil elastase): 26.2 µM
- IC50 (Neutrophil): > 10 µM
- IC50 [1]: 6.44 µM
Compound: CC(NC(=O)c1ccccc1NCc1c(O)ccc2ccccc12)c1ccccc1 (configuration not stated)

- IC50 (Neutrophil elastase): > 50 µM
- IC50 (Neutrophil): 2.5 µM
- IC50 [1]: > 10 µM
Compound: O=C(N[C@H](C(=O)O)c1ccccc1)c1ccccc1/N=C/c1c(O)ccc2ccccc12

- IC50 (Neutrophil elastase): 31.2 µM
- IC50 [1]: > 10 µM
Compound: COC(=O)[C@H](Cc1ccccc1)NC(=O)c1ccccc1/N=N/c1c(O)ccc2ccccc12

- IC50 (Neutrophil elastase): 16.8 µM
- IC50 (Neutrophil): 2.02 µM
- IC50 [1]: 2.25 µM
Compound: O=C(N[C@H](C(=O)O)c1ccccc1)c1ccccc1/N=N/c1c(O)ccc2ccccc12
